This passage reports Kd results from publication PMC12535076, “Neurotherapeutic effects of Vutiglabridin as a Paraoxonase-2 modulator in preclinical models of Parkinson’s disease” (Molecular Neurodegeneration, 2025).

Values joined by “and” are separate entries in the source; they are usually repeats but may differ in a detail not shown here. Equal values may be shown once.

This test addresses T1, recombinant human PON2 (rePON2) (Homo sapiens, UniProt Q15165).
T1 construct: made in house; host or cells: E. coli BL21 (DE3), pET21b
Nature of the test: Mass spectrometry-based binding assay. Particulars: 10 nM Vuti incubated with rePON2 0-500 nM for 30 min, LC-MS/MS; read-out: dissociation constant (Kd). From the text: The codon-optimization of HsPON2 was for Escherichia coli system and synthesized according to the full-length open reading frame (GenBank accession No. AAC41995.1) from National Center for Biotechnology Information (NCBI; http://www.ncbi.nlm.nih.gov). The HsPON2 gene was amplified by a standard PCR method with a primer set (Forward; 5’-[…]-3’, Reverse; 5’-[…]-3’) and inserted into an expression vector (pET21b; New England Biolabs, USA) using NdeI and XhoI restriction enzyme sites (underlined). […] The recombinant construct was transformed into E. coli BL21 (DE3) competent cells. The transformed cells were activated overnight and transferred to 1 L of LB broth (BD bioscience, USA) with 100 µg/mL ampicillin (Duchefa Biochemie, The Netherlands) containing 0.1% glucose, and then incubated at 37 ℃ and 200 rpm in incubator (Vision Scientific, Korea) until reaching the optical density of 0.6–0.8 at 600 nm (OD600). […] The eluted HsPON2 protein was analyzed by a 12% SDS-PAGE and concentrated up to approximately 1 mL by 10 kDa filter-size amicon (Merck Millipore, USA). […]
The method followed the concept of previously established protocol. […] The supernatant, which now contains rePON2-bound Vuti, was collected, dried, and re-suspended in acetonitrile, and the drug quantification was performed via LC-MS/MS analysis.

T1 sequence (Q15165 1-354 isoform Q15165-1): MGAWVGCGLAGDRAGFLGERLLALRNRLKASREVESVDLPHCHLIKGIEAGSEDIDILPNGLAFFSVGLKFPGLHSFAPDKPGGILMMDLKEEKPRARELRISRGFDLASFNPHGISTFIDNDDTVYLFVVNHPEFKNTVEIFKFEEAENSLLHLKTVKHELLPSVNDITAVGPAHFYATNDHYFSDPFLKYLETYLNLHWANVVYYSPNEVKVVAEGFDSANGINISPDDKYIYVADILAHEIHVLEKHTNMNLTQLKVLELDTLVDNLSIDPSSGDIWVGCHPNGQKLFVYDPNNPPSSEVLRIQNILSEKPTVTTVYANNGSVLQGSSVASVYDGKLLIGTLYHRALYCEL

By Kd is commonly meant a measure of binding affinity in units of concentration. Regarding `CCOc1ccc(C2COc3c(ccc4c3CCC(C)(C)O4)C2)c(O)c1` (stereo not shown) [Vuti, Vutiglabridin], the dissociation constant Kd was 78.9 nM and 78 nM.
